Reference: paper PMC7801115, “Preclinical in vitro screening of newly synthesised amidino substituted benzimidazoles and benzothiazoles” (Journal of Enzyme Inhibition and Medicinal Chemistry, 2021)
Read-outs that look alike come from different tables or passages of the source.

Key:
[1] = Chromatographic lipophilicity study (Chrom logD7.4); type: physicochemical; details: gradient reverse-phase HPLC (Phenomenex Luna C18 column); pH 7.4, gradient reverse-phase HPLC, from CHI7.4
Procedure: In order to determine the lipophilicity range, Chromatographic Hydrophobicity Index was measured by gradient reverse-phase HPLC at physiological pH. Sample working solutions were prepared from 10 mM DMSO stock solutions by dilution with acetonitrile to a final concentration of 1.25 mM and analysed on Agilent 1100 Series liquid chromatography system with HPLC diode-array detector (DAD) coupled with Micromass Quattro micro API mass spectrometer. Samples were injected onto an HPLC column (Phenomenex Luna C18, 50 × 3 mm, 5 µm) and eluted with a gradient at room temperature (sample temperature 15 °C). The mobile phase was composed of 50 mM Ammonium acetate, pH = 7.4 and acetonitrille. A total run time was 5 min, with the flow rate of 1 ml/min (under gradient conditions). The HPLC system was initially calibrated using the calibration set of 10 compounds with literature CHI values. The experimentally determined gradient retention times were plotted against the CHI7.4 values published in the literature resulting in the equation obtained from linear regression analysis. This equation was further used for the calculation of CHI7.4 for test compounds from determined retention times of the main chromatographic peak from UV chromatogram for each compound. The obtained CHI7.4 values were further converted to Chrom log D7.4 as follows: CHI7.4 × 0.0857 − 2.

Kinetic solubility = type: physicochemical; details: aqueous buffer, kinetic from dmso stock, phosphate buffer 50 mM, pH 7.4, 1% DMSO, 37 °C
Procedure: Test compounds and assay controls (sulfaphenazole and α-naphtoflavone) were serially diluted in DMSO by factor 3.3x, 3x, 3.3x and 3x, resulting in a total of 5 different concentrations. Phosphate buffer (50 mM, pH 7.4) was spiked with diluted test compounds and controls with final concentration range in the assay as follows: 100, 30, 10, 3 and 1 µM (1% DMSO). Plate was then incubated by gentle shaking (200–300 rpm) for 1 h and 45 min at 37 °C. After additional15 min on room temperature (without shaking), plate absorbance at 620 nm was measured with microplate reader Tecan, Infinite F500 (total incubation time = 2 h).

HCC827 = assay: MTS cell viability (cytotoxicity) assay, 2D cell culture; type: cell-based; details: Homo sapiens; HCC827, 2D cell culture, 72 h, MTS; ±SD, N = 2; read-out: IC50 antitumor activity HCC827 2D
Procedure: (§1) Compounds are diluted 1:3. 500 nL (for 2 D cell culture) or 400 nL (for 3 D cell culture) of compound were transferred from mother plate to test plate by using Mosquito (TTP labtech). DMSO percentage in test concentrations was 0.5 − 1.0%. Starting concentration of the test compounds and standard compound doxorubicin was 50 µM (2 D cell culture) or 100 µM (3 D cell culture).
(§2) Cells were grown in 96 well cell star polystyrene plates. 10,000 cells/well were seeded in wells 4 h prior the treatment with different compounds concentrations and incubated for 72 h. A cell viability assay was performed according to the manufacturer’s instruction, using CellTiter 96 aqueous solution, MTS kit (Promega, Madison, WI, USA). After 0.5–2 h of cell incubation with MTS in 2 D cell culture, the plates were read using PE EnVision absorbance at 490 nm. […] Since we prefer homogeneous assays (mix and read procedures) and therefore MTS is more practical (one step less than MTT). MTS is more sensitive and accurate in comparison with MTT assay.
(§3) Calculation of IC50 data, curves and QC analysis is made by using Excel tools and GraphPadPrism software (La Jolla, CA), v. […] QC criteria parameters (Z', S:B, R2, HillSlope) were checked for every IC50 curve.

NCI-H358 = assay: as above; type: cell-based; details: Homo sapiens; NCI-H358, 2D cell culture, 72 h, MTS; ±SD, N = 2; read-out: IC50 antitumor activity NCI-H358 2D
Procedure: as §1, §2, §3

A549 = assay: as above; type: cell-based; details: Homo sapiens, A549, 2D cell culture, 72 h, ±SD, N = 2, read-out: IC50 antitumor activity A549 2D
Procedure: as §1, §2, §3

[2] = Plasma protein binding, equilibrium dialysis; type: in vitro ADME; details: for fraction unbound at 4 h, 5 µM: equilibrium dialysis 4 h, 37 °C; for recovery at 4 h, 5 µM: recovery in PPB experiment (value in brackets)
Procedure: The extent of binding to plasma proteins was assessed using equilibrium dialysis method. Plasma (human and mouse) was spiked with test compounds and three controls (nicardipine and verapamil in both species, acebutolol in human and caffeine in mouse plasma) to obtain final concentration of 5 µM (0.5%DMSO). Hydrated membranes were inserted into equilibrium dialysis unit (HT Dialysis) according to manufacturer’s instructions. The dialysate side was then loaded with appropriate volume of buffer, while the same volume of spiked plasma was added into sample side of the well. Incubation lasted 4 h at 37 °C with gentle shaking. Afterwards, protein precipitation was done by mixing matrix matched aliquot of plasma or buffer with 3 volumes of MeCN/MeOH (2:1) mixture, containing internal standard (diclofenac). After centrifugation (at 4500 rpm, at 4 °C, for 30 min) resulting supernatants were subjected to LC-MS/MS.
All ADME samples were analysed on a Sciex API 4000 or Sciex API4500 Triple Quadrupole Mass Spectrometer (Sciex, Framingham, MA, USA) coupled to a UHPLC System (Shimadzu Nexera X2; Shimadzu, Kyoto, Japan). Samples were injected onto an UPLC column (HALO2 C18, 2.1 × 20 mm, 2 µm or Phenomenex Luna Omega Polar C18, 30 × 2.1 mm, 1.6 µm) and eluted with a gradient at temperature of 50 °C. The mobile phase was composed of acetonitrile (with 0.1% formic acid) and 0.1% formic acid in deionised water. A total run time was 1 or 1.5 min, with the flow rate of 0.7 ml/min (under gradient conditions). A positive ion mode with turbo spray, an ion source temperature of 500 °C and a dwell time of 150 ms were utilised for mass spectrometric detection. Multiple reaction monitoring (MRM) was used at the specific transitions for each compound/control tested: compound 5c: 361.9 → 304.9; compound 5d: 344.8 → 287.9; compound 5e: 349.8 → 292.9; compound 5 g: 350.8 → 293.9; compound 5 h: 344.0 → 286.9; compound 6a: 276.9 → 220.0; compound 5 b: 319.0 → 262.0; compound 6 b: 302.1 → 245.1; compound 6c: 344.9 → 288.0; compound 6d: 333.0 → 276.0; compound 6e: 316.1 → 259.0; compound 6f: 327.1 → 270.0; compound 6 g: 377.1 → 320.1; testosterone: 289.3→ 97.1; propranolol: 260.1 → 182.8; caffeine: 195.2 → 138.1; acebutolol: 337.2 → 116.2, nicardipine: 480.2 → 315.0; verapamil: 455.4 → 165.1; amprenavir: 506.2 → 245.4; diclofenac: 296.1 → 213.7 or 296.2 → 215.3; eucatropine: 292.2 → 109.1; benfluorex: 352.1 → 230.3, and warfarin: 309.2 → 163.2

[3] = human plasma, read-out: PPB % bound, Human (converted)
[4] = mouse plasma, read-out: PPB % bound, Mouse (converted)

Row | SMILES | chromatographic logD [1] | solubility kinetic at 2 h (Kinetic solubility) [µM] | IC50 (HCC827) [µM] | IC50 (NCI-H358) [µM] | IC50 (A549) [µM] | fraction unbound at 4 h, 5 µM [2, 3] | recovery at 4 h, 5 µM ([2]; human plasma) [%] | fraction unbound at 4 h, 5 µM [2, 4] | recovery at 4 h, 5 µM ([2]; mouse plasma) [%]
1 | Cl.c1ccc2cc(-c3nc4ccc(C5=NCCCN5)cc4s3)ccc2c1 [Compound 5h, 2-(Naphthalene-2-yl)-6–(3,4,5,6-tetrahydropyrimidin-1-ium-2-yl)benzothiazole chloride] | 3.31 | 10 to 30 | 6 ± 0.05 | 10 ± 1 | 38 ± 3.68 | 0.024 | 80 | 0.027 | 85
2 | FC(F)(F)c1ccc(-c2nc3cc(C4=NCCCN4)ccc3[nH]2)cc1 [Compound 6c, 2–(4-Trifluoromethylphenyl)-5(6)–(3,4,5,6-tetrahydropyrimidin-1-ium-2-yl)benzimidazole chloride] | 2.6 | > 100 | > 50 | > 50 | > 50 | 0.144 | 97 | 0.13 | 117
